SMILES strings stand for the structures. Where “and” joins values, the source holds several entries; their conditions need not be identical. Equal values may be shown once. Toxic doses and inconclusive results are not listed.

The test has as its system BDF1 mice, P388 leukemia ip, median survival T/C. Briefly: NCI In Vivo Anticancer Drug Screen. Data for tumor model P388 Leukemia (intraperitoneal) in B6D2F1 (BDF1) mice. To be noted: endpoint: median survival time, higher = longer survival. In outline: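 T/C = treated-group survival ÷ vehicle-control survival; tumour transplanted into mice before dosing.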
Setting [1] is: dose: 25.0 mg/kg/injection, schedule: Q04DX003 (ip), vehicle: saline with Tween-80.
[2] abbreviates: dose: 50.0 mg/kg/injection, schedule: Q04DX003 (ip), vehicle: saline with Tween-80.
Setting [3] is: dose: 100.0 mg/kg/injection, schedule: Q04DX003 (ip), vehicle: saline with Tween-80.
The mark [4] stands for this setting: dose: 25.0 mg/kg/injection, schedule: Q01DX009 (ip), vehicle: saline with Tween-80.
The mark [5] stands for this setting: dose: 50.0 mg/kg/injection, schedule: Q01DX009 (ip), vehicle: saline with Tween-80.
[6] abbreviates: dose: 100.0 mg/kg/injection, schedule: Q01DX009 (ip), vehicle: saline with Tween-80.
Where [7] appears, read: dose: 25.0 mg/kg/injection, schedule: Q01DX009 (ip), vehicle: water.
Where [8] appears, read: dose: 25.0 mg/kg/injection, schedule: Q04DX003 (ip), vehicle: water.
[9] abbreviates: dose: 150.0 mg/kg/injection, schedule: Q04DX003 (ip), vehicle: saline with Tween-80.
Setting [10] is: dose: 200.0 mg/kg/injection, schedule: Q04DX003 (ip), vehicle: saline with Tween-80.
The mark [11] stands for this setting: dose: 400.0 mg/kg/injection, schedule: Q04DX003 (ip), vehicle: saline with Tween-80.

For the compound `CCC(C)C1NC(=O)C(NC(=O)c2c3nc4c(C(=O)NC5C(=O)NC(C(C)CC)C(=O)N6CCCC6C(=O)N(C)CC(=O)N(C)C(C(C)C)C(=O)OC5C)cc(N)c(C)c4oc-3c(C)c(=O)c2N)C(C)OC(=O)C(C(C)C)N(C)C(=O)CN(C)C(=O)C2CCCN2C1=O` (stereo unspecified), the T/C runs as follows: (dose: 0.15 mg/kg/injection, schedule: Q04DX003 (ip), vehicle: saline + alcohol) 206 % of control; (dose: 0.3 mg/kg/injection, schedule: Q04DX003 (ip), vehicle: saline + alcohol) 227 % of control; (dose: 0.6 mg/kg/injection, schedule: Q04DX003 (ip), vehicle: saline + alcohol) 255 % of control and 312 % of control; (dose: 1.2 mg/kg/injection, schedule: Q04DX003 (ip), vehicle: saline + alcohol) 197 % of control; (dose: 25.0 micrograms/kg/injection, schedule: Q01DX009 (ip), vehicle: saline + alcohol) 190 % of control; (dose: 50.0 micrograms/kg/injection, schedule: Q01DX009 (ip), vehicle: saline + alcohol) 236 % of control. Also, the T/C runs as follows: (dose: 100.0 micrograms/kg/injection, schedule: Q01DX009 (ip), vehicle: saline + alcohol) 232 % of control; (dose: 200.0 micrograms/kg/injection, schedule: Q01DX009 (ip), vehicle: saline + alcohol) 291 % of control; (dose: 400.0 micrograms/kg/injection, schedule: Q01DX009 (ip), vehicle: saline + alcohol) 86 % of control.
Turning to `CCCCCCCCC(=O)N(C)OC`, the T/C by setting is: under setting [1], 104 % of control; under setting [2], 100 % of control; under setting [3], 100 % of control.
Regarding `CC(C)CC(C(=O)NC1C(=O)NC(Cc2c[nH]c3ccccc23)C(=O)N/C=C\c2ccc(cc2)OC1C(C)C)N(C)C` (stereo unspecified), the T/C is 100 % of control (dose: 0.1 mg/kg/injection, schedule: Q01DX010 (ip), vehicle: alcohol); 101 % of control (dose: 0.2 mg/kg/injection, schedule: Q01DX010 (ip), vehicle: alcohol); 123 % of control (dose: 0.8 mg/kg/injection, schedule: Q01DX010 (ip), vehicle: alcohol); 110 % of control (dose: 1.0 mg/kg/injection, schedule: Q01DX009 (ip), vehicle: steriod suspending solution); 115 % of control (dose: 2.0 mg/kg/injection, schedule: Q01DX009 (ip), vehicle: steriod suspending solution); 105 % of control (dose: 4.0 mg/kg/injection, schedule: Q01DX009 (ip), vehicle: steriod suspending solution). Moreover, under “dose: 8.0 mg/kg/injection, schedule: Q01DX009 (ip), vehicle: steriod suspending solution”, the T/C was 100 % of control.
Turning to `C[C@@H]1C[C@@H]([C@@H](CC2CC(=O)NC(=O)C2)OC(=O)CC(=O)c2ccccc2)C(=O)[C@@H](C)C1`, the T/C is 120 % of control (dose: 11.0 mg/kg/injection, schedule: Q01DX009 (ip), vehicle: saline with Tween-80); 165 % of control under setting [4]; 109 % of control under setting [1]; 160 % of control (dose: 37.5 mg/kg/injection, schedule: Q01DX009 (ip), vehicle: saline with Tween-80); 95 % of control under setting [5]; 118 % of control under setting [2].
Consider `N#C/C(=C\c1cc(Cl)cc(Cl)c1O)c1nc2ccccc2[nH]1`, for which the T/C reads like this: under setting [5], 93 % of control; under setting [6], 93 % of control.
Consider `CCCCCCCCCCCCn1c(C)nc2ccccc21`, for which the T/C reads like this: (dose: 10.0 mg/kg/injection, schedule: Q04DX003 (ip), vehicle: saline) 105 % of control; (dose: 20.0 mg/kg/injection, schedule: Q04DX003 (ip), vehicle: saline) 120 % of control; (dose: 40.0 mg/kg/injection, schedule: Q04DX003 (ip), vehicle: saline) 115 % of control; (dose: 60.0 mg/kg/injection, schedule: Q04DX003 (ip), vehicle: saline) 109 % of control; (dose: 90.0 mg/kg/injection, schedule: Q04DX003 (ip), vehicle: saline) 104 % of control; (dose: 135.0 mg/kg/injection, schedule: Q04DX003 (ip), vehicle: saline) 86 % of control. Moreover, the T/C was 105 % of control (dose: 200.0 mg/kg/injection, schedule: Q04DX003 (ip), vehicle: saline) and 110 % of control (dose: 305.0 mg/kg/injection, schedule: Q04DX003 (ip), vehicle: saline).
For the compound `O/C(=C/C(=S)S)c1ccco1`, the T/C under setting [7] was 93 % of control; the T/C under setting [8] was 94 % of control; the T/C (dose: 50.0 mg/kg/injection, schedule: Q01DX009 (ip), vehicle: water) is 91 % of control; the T/C (dose: 50.0 mg/kg/injection, schedule: Q04DX003 (ip), vehicle: water) is 93 % of control; the T/C (dose: 100.0 mg/kg/injection, schedule: Q01DX009 (ip), vehicle: water) is 92 % of control; the T/C (dose: 200.0 mg/kg/injection, schedule: Q01DX009 (ip), vehicle: water) is 102 % of control. Also, the T/C reads like this: (dose: 200.0 mg/kg/injection, schedule: Q04DX003 (ip), vehicle: water) 93 % of control; (dose: 400.0 mg/kg/injection, schedule: Q01DX009 (ip), vehicle: water) 93 % of control; (dose: 400.0 mg/kg/injection, schedule: Q04DX003 (ip), vehicle: water) 97 % of control.
As for `c1ccc(N=N/C(=N\Nc2ccccc2)SCCS/C(N=Nc2ccccc2)=N/Nc2ccccc2)cc1`, the T/C was 99 % of control under setting [4], 99 % of control under setting [5] and 121 % of control under setting [6].
In the case of `O=N[O-].O=N[O-].[NH-]CC[NH-].[Pt+2]`, the T/C runs as follows: (dose: 25.0 mg/kg/injection, schedule: Q04DX003 (ip), vehicle: saline) 95 % of control; (dose: 50.0 mg/kg/injection, schedule: Q04DX003 (ip), vehicle: saline) 108 % of control; (dose: 100.0 mg/kg/injection, schedule: Q01DX009 (ip), vehicle: saline) 90 % of control; (dose: 100.0 mg/kg/injection, schedule: Q04DX003 (ip), vehicle: saline) 95 % of control.
Regarding `Cc1c2cnccc2c(C)c2c1c1ccccc1n2CCNCCO`, the T/C reads like this: (dose: 0.44 mg/kg/injection, schedule: Q04DX003 (ip), vehicle: saline) 118 % of control; (dose: 1.5 mg/kg/injection, schedule: Q04DX003 (ip), vehicle: saline) 109 % of control; under setting [3], 118 % of control; under setting [9], 90 % of control.
On to `COc1c(O)c(OC)c(C(=O)/C=C/c2ccccc2)c(O)c1OC`, for which the T/C reads like this: under setting [4], 107 % of control; under setting [5], 114 % of control; under setting [6], 99 % of control.
In the case of `C[n+]1cc2c3ccccc3c(N)cc2c2ccccc21`, the T/C (dose: 3.12 mg/kg/injection, schedule: Q01DX009 (ip), vehicle: water) is 157 % of control; the T/C (dose: 6.25 mg/kg/injection, schedule: Q01DX009 (ip), vehicle: water) is 185 % of control; the T/C (dose: 6.25 mg/kg/injection, schedule: Q04DX003 (ip), vehicle: water) is 102 % of control; the T/C (dose: 12.5 mg/kg/injection, schedule: Q04DX003 (ip), vehicle: water) was 116 % of control; the T/C under setting [7] is 91 % of control; the T/C under setting [8] was 98 % of control. Further, the T/C reads like this: (dose: 100.0 mg/kg/injection, schedule: Q04DX003 (ip), vehicle: water) 154 % of control; (dose: 150.0 mg/kg/injection, schedule: Q04DX003 (ip), vehicle: water) 203 % of control.
`O=C1CC(Cl)C(=O)N1c1ccccc1` (stereo unspecified): the T/C reads like this: (dose: 75.0 mg/kg/injection, schedule: Q04DX003 (ip), vehicle: saline with Tween-80) 108 % of control; under setting [9], 104 % of control; (dose: 300.0 mg/kg/injection, schedule: Q04DX003 (ip), vehicle: saline with Tween-80) 104 % of control.
`COc1ccc2cc(Br)ccc2c1`: the T/C is 95 % of control under setting [3], 109 % of control under setting [10] and 100 % of control under setting [11].
Take `COC(=O)C1=C(C)N[C@@]2(C)[C@H](C(=O)OC)C[C@H]1C2(C(C)=O)C(C)=O`: the T/C is 116 % of control under setting [5]; 109 % of control under setting [6]; 109 % of control (dose: 200.0 mg/kg/injection, schedule: Q01DX009 (ip), vehicle: saline with Tween-80).
`C/C=C/C1CC(OC)=CC(=O)O1` (stereo unspecified): the T/C runs as follows: under setting [3], 106 % of control; under setting [10], 92 % of control; under setting [11], 97 % of control.
With `COc1cc(OC)cc(C2=NNc3n[nH]c(=S)n3N2)c1`, the T/C was 100 % of control under setting [3], 95 % of control under setting [10] and 100 % of control under setting [11].

(Values after PubChem BioAssay AID328 (DTP/NCI, 2004).)
